One assay concerns the target EGFR L858R mutant type (Homo sapiens (Human), UniProt P00533, L858R). Description: Kinase inhibitory activity, isotopic labeling (γ-33P-ATP). The format is biochemical. The following applies: ATP 200 μM (Km). How it is done:
(§1) The object of this assay was to test the inventive compounds for the kinase inhibitory activity in vitro. In this assay, an isotopic labeling method was used to label the γ phosphate group on ATP. […] Staurosporine was used as a reference molecule (or referred to as a positive control). […] The IC50 value can be obtained by the calculation of the inhibitory rates at a series of different concentrations of the tested compounds.
(§2) To a reaction tube were successively added the buffer solution (8 mM MOPS, pH 7.0, 0.2 mM EDTA, 10 mM MnCl2), the kinase to be tested (5-10 mU) (EGFR/ALK/BTK/c-KIT/c-SRC/MET/PDGFRα/VEGFR2), the substrate for the kinase to be tested (a reference material), 10 mM of the solution of magnesium acetate and γ-^33 P-ATP, and different concentrations of the tested compounds. […] The reaction was terminated with […] of the 3% phosphate buffer solution. 10 μL of the reaction liquid was titrated on the Filtermat A membrane. The membrane was washed with 75 mM of the phosphate solution thrice (5 minutes each time), and then with methanol once, and finally dried. The membrane was subjected to a scintillation counting. The value of the scintillation counting reflected the phosphorylation level of the substrate and therefore could characterize the inhibition of the kinase activity.

Assay [1] addresses EGFR L858R/T790M double mutant type (Homo sapiens (Human), UniProt P00533, L858R/T790M). The description is as above. The class given is biochemical. The following applies: ATP 45 μM (Km). The protocol:
as §1, §2

The next assay concerns the target EGFR wild type (Homo sapiens (Human), UniProt P00533). The description is as above. The format is biochemical. The settings on record: ATP 10 μM (Km). How it is done: as §1, §2
Another assay concerns the target ALK (Homo sapiens (Human), UniProt Q9UM73). The assay is described as above. The format is biochemical. The following applies: compound at 10 μM.
Another assay has as its target BTK (Homo sapiens (Human), UniProt Q06187). The description is as above. The settings on record: compound at 10 μM. The format is biochemical.
The target of the next assay is FLT3 (Homo sapiens (Human), UniProt P36888). Described as above. The class given is biochemical. The settings on record: compound at 10 μM.
The next assay addresses MET (Homo sapiens (Human), UniProt P08581). The description is as above. The format is biochemical. The following applies: compound at 10 μM.
A further assay concerns the target PDGFRα (Homo sapiens (Human), UniProt P16234). The assay is described as above. The format is biochemical. The settings on record: compound at 10 μM.
The target of the next assay is VEGFR2 (Homo sapiens (Human), UniProt P35968). The assay is described as above. The format is biochemical. The settings on record: ATP 90 μM (Km). The procedure, abridged:
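Substrate phosphorylation by each kinase (5-10 mU) is measured through transfer of the γ-33P label from ATP in MOPS buffer, pH 7.0, containing MnCl2 and magnesium acetate. Filter-captured counts at a series of compound concentrations yield the IC50.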

Another assay addresses c-KIT (Homo sapiens (Human), UniProt P10721). The assay is described as above. The following applies: compound at 10 μM. The format is biochemical.
The target of the next assay is c-SRC (Homo sapiens (Human), UniProt P12931). The assay is described as above. The format is biochemical. The settings on record: compound at 10 μM.
The test system of assay [2] is colon cancer cell strain SW480. The assay is described as follows: In-vitro tumor cell proliferation inhibition, MTT. The format is cell-based, human. The following applies: 72 hours.
In assay [3] the test system is colon cancer cell strain SW620. Description: In-vitro tumor cell proliferation inhibition, MTT. The class given is cell-based, human. The following applies: 72 hours. In a few lines: (§3)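 MTT colorimetric proliferation test: plated cells exposed 72 h to compound dilution series, DMSO 1% solvent control included. A570 gave inhibition relative to drug-free control; IC50 or inhibitory rate from at least three experiments. HCC827 and BT474 grown in RPMI-1640, A431 and SW620 in DMEM, both with 10% FBS.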

Assay [4] has as its system malignant melanoma cell strain A375. Description: In-vitro tumor cell proliferation inhibition, MTT. The following applies: 72 hours. The class given is cell-based, human.
The subject of assay [5] is squamous cell carcinoma cell strain A431. The assay is described as follows: In-vitro tumor cell proliferation inhibition, MTT. The format is cell-based, human. The settings on record: 72 hours. In a few lines: as §3

Bounds are passed on as bounds.

EGFR wild type, sequence (P00533 25-1210): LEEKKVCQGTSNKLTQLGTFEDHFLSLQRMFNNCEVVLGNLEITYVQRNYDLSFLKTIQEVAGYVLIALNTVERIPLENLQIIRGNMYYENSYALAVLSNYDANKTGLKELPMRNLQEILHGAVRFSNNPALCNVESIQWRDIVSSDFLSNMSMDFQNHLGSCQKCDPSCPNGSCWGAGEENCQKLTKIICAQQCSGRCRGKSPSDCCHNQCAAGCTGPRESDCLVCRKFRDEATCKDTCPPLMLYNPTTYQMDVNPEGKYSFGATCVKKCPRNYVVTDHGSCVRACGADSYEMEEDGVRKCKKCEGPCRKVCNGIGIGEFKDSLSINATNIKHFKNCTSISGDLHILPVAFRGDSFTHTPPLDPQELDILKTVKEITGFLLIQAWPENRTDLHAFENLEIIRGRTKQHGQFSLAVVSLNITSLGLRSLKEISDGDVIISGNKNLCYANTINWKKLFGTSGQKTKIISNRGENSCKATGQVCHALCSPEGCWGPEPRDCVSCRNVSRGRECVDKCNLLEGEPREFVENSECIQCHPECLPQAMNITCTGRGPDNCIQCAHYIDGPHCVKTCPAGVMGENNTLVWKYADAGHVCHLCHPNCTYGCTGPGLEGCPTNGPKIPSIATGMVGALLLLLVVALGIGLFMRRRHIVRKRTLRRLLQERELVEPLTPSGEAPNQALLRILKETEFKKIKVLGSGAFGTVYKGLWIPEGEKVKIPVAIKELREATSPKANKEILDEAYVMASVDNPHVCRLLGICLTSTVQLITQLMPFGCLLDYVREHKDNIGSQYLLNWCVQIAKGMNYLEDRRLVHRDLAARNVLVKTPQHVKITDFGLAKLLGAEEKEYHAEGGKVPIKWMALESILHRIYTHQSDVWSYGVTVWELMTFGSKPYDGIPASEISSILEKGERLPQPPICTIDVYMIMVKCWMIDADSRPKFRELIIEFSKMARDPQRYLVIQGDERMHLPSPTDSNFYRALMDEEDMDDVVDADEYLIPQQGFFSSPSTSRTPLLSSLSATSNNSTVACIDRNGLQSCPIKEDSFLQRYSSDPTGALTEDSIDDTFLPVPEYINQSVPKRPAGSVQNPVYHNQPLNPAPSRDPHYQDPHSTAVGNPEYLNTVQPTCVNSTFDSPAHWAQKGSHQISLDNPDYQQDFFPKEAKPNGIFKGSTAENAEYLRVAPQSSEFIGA
MET, sequence (P08581 25-1390): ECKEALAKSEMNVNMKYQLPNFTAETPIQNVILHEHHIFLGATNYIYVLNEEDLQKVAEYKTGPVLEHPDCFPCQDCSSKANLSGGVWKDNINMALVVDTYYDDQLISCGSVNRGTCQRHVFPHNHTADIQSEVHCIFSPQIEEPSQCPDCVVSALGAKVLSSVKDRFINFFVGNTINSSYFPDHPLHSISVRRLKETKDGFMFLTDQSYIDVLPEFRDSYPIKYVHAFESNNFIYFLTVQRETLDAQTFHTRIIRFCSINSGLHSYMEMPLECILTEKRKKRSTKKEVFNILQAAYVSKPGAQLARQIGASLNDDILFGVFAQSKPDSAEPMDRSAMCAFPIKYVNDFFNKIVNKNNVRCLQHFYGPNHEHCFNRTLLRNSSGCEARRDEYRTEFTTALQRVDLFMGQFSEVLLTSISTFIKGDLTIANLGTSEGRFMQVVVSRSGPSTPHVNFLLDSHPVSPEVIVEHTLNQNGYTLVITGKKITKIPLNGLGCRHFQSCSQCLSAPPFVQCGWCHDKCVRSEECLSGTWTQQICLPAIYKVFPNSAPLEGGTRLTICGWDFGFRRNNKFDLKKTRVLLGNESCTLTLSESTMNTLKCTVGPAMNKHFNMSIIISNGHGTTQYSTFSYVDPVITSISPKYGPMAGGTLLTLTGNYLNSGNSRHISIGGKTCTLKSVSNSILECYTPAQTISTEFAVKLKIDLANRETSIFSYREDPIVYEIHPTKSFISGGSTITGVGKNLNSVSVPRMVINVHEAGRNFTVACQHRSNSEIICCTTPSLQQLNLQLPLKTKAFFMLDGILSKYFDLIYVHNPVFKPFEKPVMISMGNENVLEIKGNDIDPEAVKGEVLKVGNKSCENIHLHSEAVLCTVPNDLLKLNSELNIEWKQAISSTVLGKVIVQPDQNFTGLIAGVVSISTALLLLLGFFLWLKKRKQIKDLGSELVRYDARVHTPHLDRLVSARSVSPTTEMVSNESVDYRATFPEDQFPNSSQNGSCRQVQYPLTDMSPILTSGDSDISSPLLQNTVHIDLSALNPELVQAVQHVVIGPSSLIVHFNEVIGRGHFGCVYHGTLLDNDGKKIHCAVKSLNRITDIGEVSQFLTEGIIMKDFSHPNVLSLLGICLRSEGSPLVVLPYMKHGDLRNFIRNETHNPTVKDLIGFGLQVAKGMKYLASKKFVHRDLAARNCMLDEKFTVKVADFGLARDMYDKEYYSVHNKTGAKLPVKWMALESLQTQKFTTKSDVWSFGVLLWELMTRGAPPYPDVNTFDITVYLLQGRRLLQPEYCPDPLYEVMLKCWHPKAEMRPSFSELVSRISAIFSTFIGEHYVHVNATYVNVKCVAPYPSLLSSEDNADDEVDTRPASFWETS
EGFR L858R mutant type, sequence (P00533 25-1210 L858R): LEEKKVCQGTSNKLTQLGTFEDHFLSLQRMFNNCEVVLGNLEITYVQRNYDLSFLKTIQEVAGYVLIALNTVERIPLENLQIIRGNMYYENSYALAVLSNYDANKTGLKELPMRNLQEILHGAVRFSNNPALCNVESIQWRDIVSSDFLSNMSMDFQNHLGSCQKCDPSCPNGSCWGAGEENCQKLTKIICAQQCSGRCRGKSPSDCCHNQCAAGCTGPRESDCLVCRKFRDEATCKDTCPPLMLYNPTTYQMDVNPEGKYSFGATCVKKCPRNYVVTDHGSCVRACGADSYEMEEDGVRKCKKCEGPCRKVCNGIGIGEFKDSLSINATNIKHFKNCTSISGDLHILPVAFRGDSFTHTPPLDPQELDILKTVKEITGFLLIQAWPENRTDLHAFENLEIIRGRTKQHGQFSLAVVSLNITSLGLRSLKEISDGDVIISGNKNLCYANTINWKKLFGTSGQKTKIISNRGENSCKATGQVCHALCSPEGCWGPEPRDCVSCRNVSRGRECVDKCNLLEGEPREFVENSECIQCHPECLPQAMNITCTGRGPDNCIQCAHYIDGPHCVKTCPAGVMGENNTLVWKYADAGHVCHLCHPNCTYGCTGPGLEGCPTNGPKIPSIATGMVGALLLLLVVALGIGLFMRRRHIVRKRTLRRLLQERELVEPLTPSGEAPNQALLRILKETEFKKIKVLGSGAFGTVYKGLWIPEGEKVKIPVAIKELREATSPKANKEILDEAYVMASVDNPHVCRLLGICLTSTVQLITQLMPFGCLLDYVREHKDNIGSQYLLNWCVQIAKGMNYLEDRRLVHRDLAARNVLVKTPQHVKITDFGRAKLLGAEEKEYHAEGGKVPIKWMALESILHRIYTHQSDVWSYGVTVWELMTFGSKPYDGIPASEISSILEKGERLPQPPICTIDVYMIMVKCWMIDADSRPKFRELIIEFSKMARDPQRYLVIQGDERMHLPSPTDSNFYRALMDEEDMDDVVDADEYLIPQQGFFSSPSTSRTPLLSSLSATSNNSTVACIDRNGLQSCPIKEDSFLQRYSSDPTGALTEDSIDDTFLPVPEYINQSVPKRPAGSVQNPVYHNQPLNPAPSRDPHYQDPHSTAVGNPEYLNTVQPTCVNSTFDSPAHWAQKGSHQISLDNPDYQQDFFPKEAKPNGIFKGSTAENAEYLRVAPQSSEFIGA
PDGFRα, sequence (P16234 24-1089): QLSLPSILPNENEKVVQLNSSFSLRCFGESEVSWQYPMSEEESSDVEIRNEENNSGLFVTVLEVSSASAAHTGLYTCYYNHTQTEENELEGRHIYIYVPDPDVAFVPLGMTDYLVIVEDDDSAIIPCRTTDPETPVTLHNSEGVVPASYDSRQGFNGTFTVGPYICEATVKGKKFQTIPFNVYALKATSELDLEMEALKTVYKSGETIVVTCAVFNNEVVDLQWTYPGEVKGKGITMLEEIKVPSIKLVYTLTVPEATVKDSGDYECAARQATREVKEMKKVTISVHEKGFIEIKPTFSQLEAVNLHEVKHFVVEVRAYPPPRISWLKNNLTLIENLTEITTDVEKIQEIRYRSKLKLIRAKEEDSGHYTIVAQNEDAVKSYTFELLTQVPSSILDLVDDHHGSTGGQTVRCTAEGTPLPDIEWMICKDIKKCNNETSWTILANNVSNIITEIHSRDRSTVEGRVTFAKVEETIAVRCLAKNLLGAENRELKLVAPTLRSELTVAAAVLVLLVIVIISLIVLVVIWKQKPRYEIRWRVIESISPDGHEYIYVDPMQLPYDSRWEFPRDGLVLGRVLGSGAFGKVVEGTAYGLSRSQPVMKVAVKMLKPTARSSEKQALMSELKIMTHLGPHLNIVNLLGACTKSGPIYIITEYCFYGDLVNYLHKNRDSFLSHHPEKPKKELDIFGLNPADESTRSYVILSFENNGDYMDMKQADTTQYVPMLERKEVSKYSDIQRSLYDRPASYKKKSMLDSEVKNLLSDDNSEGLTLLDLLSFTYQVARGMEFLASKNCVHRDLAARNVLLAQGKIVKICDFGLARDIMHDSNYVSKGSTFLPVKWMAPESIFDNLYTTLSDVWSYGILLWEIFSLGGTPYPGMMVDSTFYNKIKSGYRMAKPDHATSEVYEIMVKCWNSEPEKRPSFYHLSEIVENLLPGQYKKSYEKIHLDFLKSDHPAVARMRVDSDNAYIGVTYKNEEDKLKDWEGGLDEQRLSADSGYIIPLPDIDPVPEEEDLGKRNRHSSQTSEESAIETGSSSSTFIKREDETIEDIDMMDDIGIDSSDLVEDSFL

One may read the IC50 as the midpoint of a concentration-inhibition curve. A higher IC50 goes with weaker potency. `CN1CCN(c2ccc(Nc3ncc4nc(Nc5ccccc5)n(C)c4n3)cc2)CC1` [Compounds 8-24]: the 50% inhibitory concentration (IC50) on EGFR L858R mutant type was 0.003 µM; in assay [1], 0.522 µM; against EGFR wild type, 0.012 µM; on VEGFR2, > 1000 nM; in assay [2], > 10000 nM; in [3], > 10000 nM. In addition, the half-maximal inhibitory concentration (IC50) turned out to be 2400 nM in assay [4] and 9650 nM in assay [5]. Also, at ALK, the “The kinase activity inhibitory rate (%) by the tested compounds at 10 μM ALK” value is listed as 8%. Also, at BTK, the “The kinase activity inhibitory rate (%) by the tested compounds at 10 μM BTK” value was found to be 14%. Also, the “The kinase activity inhibitory rate (%) by the tested compounds at 10 μM FLT3” value on FLT3 was found to be 75%. Also, the “The kinase activity inhibitory rate (%) by the tested compounds at 10 μM MET” value at MET is given as 0%. The “The kinase activity inhibitory rate (%) by the tested compounds at 10 μM PDGFRα” value on PDGFRα is reported as 29%. At c-KIT, the “The kinase activity inhibitory rate (%) by the tested compounds at 10 μM c-KIT” value is given as 48%. For the same compound, on c-SRC, the “The kinase activity inhibitory rate (%) by the tested compounds at 10 μM c-SRC” value was 75%.
For the compound `CN1CCN(c2ccc(Nc3ncc4nc(Nc5ccccc5)[nH]c4n3)cc2)CC1` [Compounds 8-25], the half-maximal inhibitory concentration (IC50) against EGFR L858R mutant type was 0.005 µM; in [1] it was 0.458 µM; at EGFR wild type it was 0.029 µM; against VEGFR2, > 1000 nM; in assay [2] it was > 10000 nM; in assay [3], > 10000 nM. For the same compound, the 50% inhibitory concentration (IC50) in assay [4] and in assay [5] was > 10000 nM each time. The “The kinase activity inhibitory rate (%) by the tested compounds at 10 μM ALK” value at ALK worked out at 13%. In addition, the “The kinase activity inhibitory rate (%) by the tested compounds at 10 μM BTK” value at BTK is 45%. On FLT3, the “The kinase activity inhibitory rate (%) by the tested compounds at 10 μM FLT3” value was found to be 32%. In addition, on MET, the “The kinase activity inhibitory rate (%) by the tested compounds at 10 μM MET” value turned out to be 0%. Besides, the “The kinase activity inhibitory rate (%) by the tested compounds at 10 μM PDGFRα” value on PDGFRα was 21%. At c-KIT, the “The kinase activity inhibitory rate (%) by the tested compounds at 10 μM c-KIT” value is listed as 8%. For the same compound, the “The kinase activity inhibitory rate (%) by the tested compounds at 10 μM c-SRC” value on c-SRC amounted to 78%.
Consider `CC(C)n1c(Nc2ccc(C(F)(F)F)cc2)nc2cnc(Nc3ccc(N4CCN(C)CC4)cc3)nc21` [Compounds 8-27], for which the concentration for half-maximal inhibition (IC50) at EGFR L858R mutant type was 0.005 µM; in assay [1], 0.054 µM; on EGFR wild type, 0.034 µM; against VEGFR2, 9 nM; in assay [2] it was 2600 nM; in assay [3], > 1000 nM. Further, the figures for the IC50 in assay [4] and in assay [5] were 9790 nM and 2350 nM, respectively. The “The kinase activity inhibitory rate (%) by the tested compounds at 10 μM ALK” value on ALK was 30%. Further, on BTK, the “The kinase activity inhibitory rate (%) by the tested compounds at 10 μM BTK” value was found to be 74%. The “The kinase activity inhibitory rate (%) by the tested compounds at 10 μM FLT3” value at FLT3 is recorded as 83%. Besides, the “The kinase activity inhibitory rate (%) by the tested compounds at 10 μM MET” value at MET was 36%. Further, the “The kinase activity inhibitory rate (%) by the tested compounds at 10 μM PDGFRα” value at PDGFRα was determined as 68%. Moreover, on c-KIT, the “The kinase activity inhibitory rate (%) by the tested compounds at 10 μM c-KIT” value was found to be 93%. Also, the “The kinase activity inhibitory rate (%) by the tested compounds at 10 μM c-SRC” value at c-SRC is given as 98%.
Take `CC(C)n1c(Nc2cccnc2)nc2cnc(Nc3ccc(N4CCN(C)CC4)cc3)nc21` [Compounds 8-29]: the 50% inhibitory concentration (IC50) is 0.004 µM against EGFR L858R mutant type; 0.064 µM in assay [1]; 0.031 µM at EGFR wild type; > 1000 nM against VEGFR2; > 10000 nM in assay [2]; 5800 nM in assay [3]. The results for the IC50 in [4] and in [5] were 1880 nM and 9020 nM, respectively. Further, at ALK, the “The kinase activity inhibitory rate (%) by the tested compounds at 10 μM ALK” value came out at 15%. For the same compound, the “The kinase activity inhibitory rate (%) by the tested compounds at 10 μM BTK” value on BTK was determined as 60%. For the same compound, at FLT3, the “The kinase activity inhibitory rate (%) by the tested compounds at 10 μM FLT3” value was found to be 99%. Moreover, the “The kinase activity inhibitory rate (%) by the tested compounds at 10 μM MET” value at MET is listed as 50%. Moreover, the “The kinase activity inhibitory rate (%) by the tested compounds at 10 μM PDGFRα” value at PDGFRα was 42%. Also, on c-KIT, the “The kinase activity inhibitory rate (%) by the tested compounds at 10 μM c-KIT” value turned out to be 36%. Further, at c-SRC, the “The kinase activity inhibitory rate (%) by the tested compounds at 10 μM c-SRC” value is reported as 97%.
On to `CC(C)n1c(NC2CCCCC2)nc2cnc(Nc3ccc(N4CCN(C)CC4)cc3)nc21` [Compounds 8-30], for which the half-maximal inhibitory concentration (IC50) against EGFR L858R mutant type was 0.005 µM; in [1] it was 0.228 µM; at EGFR wild type, 0.015 µM; at VEGFR2, > 1000 nM; in [2], > 10000 nM; in [3], 4220 nM. For the same compound, the IC50 in assay [4] and in assay [5] was > 10000 nM in each case. Further, on ALK, the “The kinase activity inhibitory rate (%) by the tested compounds at 10 μM ALK” value is given as 8%. For the same compound, at BTK, the “The kinase activity inhibitory rate (%) by the tested compounds at 10 μM BTK” value stood at 25%. For the same compound, at FLT3, the “The kinase activity inhibitory rate (%) by the tested compounds at 10 μM FLT3” value was 43%. Also, the “The kinase activity inhibitory rate (%) by the tested compounds at 10 μM MET” value at MET came out at 0%. For the same compound, the “The kinase activity inhibitory rate (%) by the tested compounds at 10 μM PDGFRα” value on PDGFRα came out at 21%. Besides, the “The kinase activity inhibitory rate (%) by the tested compounds at 10 μM c-KIT” value on c-KIT is recorded as 0%. The “The kinase activity inhibitory rate (%) by the tested compounds at 10 μM c-SRC” value on c-SRC was found to be 67%.
For the compound `C=CC(=O)Nc1cccc(Nc2ncc3nc(Nc4ccccc4)n(C(C)C)c3n2)c1` [Compounds 8-38], the IC50 against EGFR L858R mutant type is 0.0006 µM; in assay [1], 0.037 µM; against EGFR wild type it was 0.002 µM; at VEGFR2, > 1000 nM; in assay [2], > 10000 nM; in assay [3] it was 370 nM. The IC50 is > 10000 nM in [4] and 179 nM in [5]. Moreover, the “The kinase activity inhibitory rate (%) by the tested compounds at 10 μM ALK” value on ALK is reported as 22%. The “The kinase activity inhibitory rate (%) by the tested compounds at 10 μM BTK” value on BTK turned out to be 93%. The “The kinase activity inhibitory rate (%) by the tested compounds at 10 μM FLT3” value on FLT3 came out at 86%. In addition, the “The kinase activity inhibitory rate (%) by the tested compounds at 10 μM MET” value on MET is reported as 74%. Further, the “The kinase activity inhibitory rate (%) by the tested compounds at 10 μM PDGFRα” value on PDGFRα turned out to be 55%. For the same compound, on c-KIT, the “The kinase activity inhibitory rate (%) by the tested compounds at 10 μM c-KIT” value is on record as 63%. The “The kinase activity inhibitory rate (%) by the tested compounds at 10 μM c-SRC” value on c-SRC is recorded as 93%.

These data come from patent US9096601B2 (CSPC Zhongqi Pharmaceutical Technology (Shijiazhuang) Co., …, priority 2010, dated 2015).
